In PMC7070694, “Identification of New Peptides from Fermented Milk Showing Antioxidant Properties: Mechanism of Action” (Antioxidants, 2020):
Peptide text beside a SMILES is read from it.

Experiment: MTT cell viability (cytotoxicity)
Assay type: cell-based
Conditions: human, Caco-2 cells (1 × 10^4), synthetic peptides 0.05 mg/mL, no TbOOH, mean ± SD of at least three experiments, read-out: Percentage of Cell Viability, None (c)

Row | Structure (SMILES) | viability at 24 h, 50 µg/mL [%]
1 | CC[C@H](C)[C@H](NC(=O)[C@H](CCC(=O)O)NC(=O)CNC(=O)[C@@H]1CCCN1C(=O)[C@@H](NC(=O)[C@@H](N)CC(N)=O)C(C)C)C(=O)N[C@H](C(=O)N[C@@H](CCC(=O)O)C(=O)N[C@@H](CO)C(=O)N[C@@H](CC(C)C)C(=O)O)C(C)C [N-10-L] (H-NVPGEIVESL-OH) | 120 ± 15.7
2 | CC[C@H](C)[C@H](NC(=O)[C@@H]1CCCN1C(=O)CNC(=O)[C@@H]1CCCN1C(=O)[C@H](Cc1ccccc1)NC(=O)[C@@H]1CCCN1C(=O)[C@H](Cc1ccc(O)cc1)NC(=O)[C@@H](N)C(C)C)C(=O)N1CCC[C@H]1C(=O)N[C@@H](CC(N)=O)C(=O)O [V-10-N] (H-VYPFPGPIPN-OH) | 111 ± 9.93
3 | CC(C)C[C@H](NC(=O)[C@H](CC(C)C)NC(=O)[C@H](CC(N)=O)NC(=O)[C@H](CCC(=O)O)NC(=O)[C@H](CC(N)=O)NC(=O)[C@H](CC(C)C)NC(=O)[C@@H](NC(=O)[C@H](CCC(=O)O)NC(=O)[C@H](CCC(N)=O)NC(=O)[C@@H]1CCCN1C(=O)[C@H](CC(C)C)NC(=O)CNC(=O)[C@H](CCC(N)=O)NC(=O)[C@H](Cc1c[nH]cn1)NC(=O)[C@@H](N)CCCCN)C(C)C)C(=O)O [K-15-L] (H-KHQGLPQEVLNENLL-OH) | 105 ± 14.5
4 | CC[C@H](C)[C@H](NC(=O)CNC(=O)[C@H](Cc1ccc(O)cc1)NC(=O)[C@H](CO)NC(=O)[C@@H]1CCCN1C(=O)[C@H](Cc1ccc(O)cc1)NC(=O)[C@H](CCCNC(=N)N)NC(=O)[C@H](CO)NC(=O)[C@H](CC(C)C)NC(=O)[C@@H](NC(=O)[C@H](Cc1ccc(O)cc1)NC(=O)[C@@H](N)CCC(N)=O)C(C)C)C(=O)N[C@@H](CC(N)=O)C(=O)O [Q-13-N] (H-QYVLSRYPSYGIN-OH) | 104 ± 6.64
5 | CSCC[C@H](NC(=O)[C@H](CCC(=O)O)NC(=O)[C@H](CCCCN)NC(=O)[C@@H](N)Cc1c[nH]cn1)C(=O)N1CCC[C@H]1C(=O)N[C@@H](Cc1ccccc1)C(=O)N1CCC[C@H]1C(=O)N[C@@H](CCCCN)C(=O)N[C@@H](Cc1ccc(O)cc1)C(=O)N1CCC[C@H]1C(=O)N[C@H](C(=O)N[C@@H](CCC(=O)O)C(=O)N1CCC[C@H]1C(=O)N[C@@H](Cc1ccccc1)C(=O)N[C@H](C(=O)N[C@@H](CCC(=O)O)C(=O)N[C@@H](CO)C(=O)N[C@@H](CCC(N)=O)C(=O)O)[C@@H](C)O)C(C)C [H-18-Q] (H-HKEMPFPKYPVEPFTESQ-OH) | 91.9 ± 8.99
6 | CC(C)C[C@H](NC(=O)[C@H](Cc1ccccc1)NC(=O)[C@@H]1CCCN1C(=O)[C@@H]1CCCN1C(=O)[C@@H](NC(=O)[C@@H](N)C(C)C)C(C)C)C(=O)N[C@@H](CCC(N)=O)C(=O)N1CCC[C@H]1C(=O)N[C@@H](CCC(=O)O)C(=O)O [V-9-E] (H-VVPPFLQPE-OH) | 107 ± 8.02
7 | CC[C@H](C)[C@H](NC(=O)[C@H](CCC(N)=O)NC(=O)[C@H](C)NC(=O)[C@@H]1CCCN1C(=O)[C@H](CO)NC(=O)[C@H](CCCNC(=N)N)NC(=O)[C@@H](NC(=O)[C@H](C)N)C(C)C)C(=O)N[C@@H](CC(C)C)C(=O)N[C@@H](CCC(N)=O)C(=O)N[C@@H](Cc1c[nH]c2ccccc12)C(=O)N[C@@H](CCC(N)=O)C(=O)O [A-12-Q] (H-AVRSPAQILQWQ-OH) | 102 ± 4.69
8 | CC(C)[C@H](NC(=O)[C@@H]1CCCN1C(=O)[C@H](Cc1ccc(O)cc1)NC(=O)[C@H](CCCCN)NC(=O)[C@@H]1CCCN1C(=O)[C@@H](N)Cc1ccccc1)C(=O)N[C@@H](CCC(=O)O)C(=O)N1CCC[C@H]1C(=O)N[C@@H](Cc1ccccc1)C(=O)O [F-9-F] (H-FPKYPVEPF-OH) | 109 ± 12.7
9 | CC[C@H](C)[C@H](N)C(=O)N[C@@H](CC(N)=O)C(=O)N[C@@H](CC(N)=O)C(=O)N[C@@H](CCC(N)=O)C(=O)N[C@@H](Cc1ccccc1)C(=O)N[C@@H](CC(C)C)C(=O)N1CCC[C@H]1C(=O)N[C@@H](Cc1ccc(O)cc1)C(=O)N1CCC[C@H]1C(=O)N[C@@H](Cc1ccc(O)cc1)C(=O)N[C@@H](Cc1ccc(O)cc1)C(=O)N[C@@H](C)C(=O)N[C@@H](CCCCN)C(=O)N1CCC[C@H]1C(=O)N[C@@H](C)C(=O)O [I-15-A] (H-INNQFLPYPYYAKPA-OH) | 104 ± 5.12
10 | CC(C)C[C@H](NC(=O)[C@H](Cc1ccc(O)cc1)NC(=O)[C@H](CCC(N)=O)NC(=O)[C@@H]1CCCN1C(=O)[C@H](CC(C)C)NC(=O)[C@H](C)N)C(=O)N[C@@H](CCCCN)C(=O)N[C@H](C(=O)N[C@H](C(=O)N[C@@H](Cc1ccc(O)cc1)C(=O)N[C@@H](CCC(N)=O)C(=O)N[C@@H](Cc1c[nH]cn1)C(=O)N[C@@H](CCC(N)=O)C(=O)N[C@@H](CCCCN)C(=O)O)C(C)C)[C@@H](C)O [A-14-K] (H-ALPQYLKTVYQHQK-OH) | 84.4 ± 9.69
11 | CC(C)C[C@H](NC(=O)[C@@H](NC(=O)[C@H](CCCCN)NC(=O)[C@H](CO)NC(=O)[C@H](CCC(N)=O)NC(=O)[C@@H](N)CO)C(C)C)C(=O)N1CCC[C@H]1C(=O)N[C@H](C(=O)N1CCC[C@H]1C(=O)N[C@@H](CCC(N)=O)C(=O)N[C@@H](CCCCN)C(=O)N[C@@H](C)C(=O)N[C@H](C(=O)N1CCC[C@H]1C(=O)N[C@@H](Cc1ccc(O)cc1)C(=O)N1CCC[C@H]1C(=O)N[C@@H](CCC(N)=O)C(=O)O)C(C)C)C(C)C [S-17-Q] (H-SQSKVLPVPQKAVPYPQ-OH) | 101 ± 7.46
12 | CC[C@H](C)[C@H](N)C(=O)N[C@@H](CCC(N)=O)C(=O)N1CCC[C@H]1C(=O)N[C@@H](CCCCN)C(=O)N[C@H](C(=O)N[C@@H](CCCCN)C(=O)N[C@H](C(=O)N[C@H](C(=O)N1CCC[C@H]1C(=O)N[C@@H](Cc1ccc(O)cc1)C(=O)N[C@H](C(=O)N[C@@H](CCCNC(=N)N)C(=O)N[C@@H](Cc1ccc(O)cc1)C(=O)N[C@@H](CC(C)C)C(=O)O)C(C)C)[C@@H](C)CC)C(C)C)[C@@H](C)O [I-14-L] (H-IQPKTKVIPYVRYL-OH) | 93 ± 13.6
13 | CC[C@H](C)[C@H](NC(=O)[C@@H](NC(=O)[C@H](CC(N)=O)NC(=O)[C@@H](NC(=O)[C@@H](NC(=O)[C@@H]1CCCN1C(=O)[C@@H](NC(=O)[C@H](CCC(=O)O)NC(=O)[C@@H](NC(=O)[C@H](CCCCN)NC(=O)[C@@H](N)CC(=O)O)[C@@H](C)O)[C@@H](C)CC)[C@@H](C)O)[C@@H](C)CC)[C@@H](C)O)C(=O)N[C@@H](C)C(=O)N[C@@H](CO)C(=O)NCC(=O)N[C@@H](CCC(=O)O)C(=O)N1CCC[C@H]1C(=O)N[C@H](C(=O)O)[C@@H](C)O [D-17-T] (H-DKTEIPTINTIASGEPT-OH) | 104 ± 5.62
14 | CC[C@H](C)[C@H](NC(=O)[C@H](CCC(=O)O)NC(=O)[C@@H]1CCCN1C(=O)[C@@H]1CCCN1C(=O)[C@H](CO)NC(=O)[C@H](CCC(=O)O)NC(=O)[C@@H](NC(=O)[C@@H](N)C(C)C)[C@@H](C)CC)C(=O)N[C@@H](CC(N)=O)C(=O)N[C@H](C(=O)N[C@H](C(=O)N[C@@H](CCC(N)=O)C(=O)O)C(C)C)[C@@H](C)O [V-12-Q] (H-VIESPPEINTVQ-OH) | 113 ± 3.52
15 | CC[C@H](C)[C@H](NC(=O)[C@@H]1CCCN1C(=O)[C@@H](NC(=O)[C@H](Cc1ccc(O)cc1)NC(=O)[C@@H](N)CCCCN)[C@@H](C)CC)C(=O)N[C@@H](CCC(N)=O)C(=O)N[C@@H](Cc1ccc(O)cc1)C(=O)N[C@H](C(=O)N[C@@H](CC(C)C)C(=O)N[C@@H](CO)C(=O)O)C(C)C [K-10-S] (H-KYIPIQYVLS-OH) | 97.3 ± 6.69
16 | CC(C)[C@H](NC(=O)[C@H](CCC(=O)O)NC(=O)[C@@H]1CCCN1C(=O)[C@H](Cc1ccccc1)NC(=O)[C@@H]1CCCN1)C(=O)N[C@@H](Cc1ccccc1)C(=O)NCC(=O)N[C@@H](CCCCN)C(=O)N[C@@H](CCC(=O)O)C(=O)O [P-9-E] (H-PFPEVFGKE-OH) | 101 ± 14.5
17 | CSCC[C@H](NC(=O)[C@H](Cc1c[nH]c2ccccc12)NC(=O)[C@@H](N)CO)C(=O)N[C@@H](Cc1c[nH]cn1)C(=O)N[C@@H](CCC(N)=O)C(=O)N1CCC[C@H]1C(=O)N[C@@H](Cc1c[nH]cn1)C(=O)N[C@@H](CCC(N)=O)C(=O)N1CCC[C@H]1C(=O)N[C@@H](CC(C)C)C(=O)N1CCC[C@H]1C(=O)N1CCC[C@H]1C(=O)N[C@H](C(=O)O)[C@@H](C)O [S-13-T] (H-SWMHQPHQPLPPT-OH) | 107 ± 12.4
18 | CC[C@H](C)[C@H](NC(=O)[C@H](CCCCN)NC(=O)[C@@H](NC(=O)[C@@H](NC(=O)[C@@H]1CCCN1C(=O)[C@@H](NC(=O)CNC(=O)[C@@H](NC(=O)[C@H](CC(=O)O)NC(=O)[C@H](CC(=O)O)NC(=O)[C@H](CCCCN)NC(=O)[C@@H](N)CCC(=O)O)[C@@H](C)O)[C@@H](C)O)[C@@H](C)CC)[C@@H](C)O)C(=O)N[C@@H](CCC(=O)O)C(=O)N[C@@H](CC(C)C)C(=O)N[C@H](C(=O)N1CCC[C@H]1C(=O)N[C@@H](CO)C(=O)N[C@@H](Cc1c[nH]cn1)C(=O)O)C(C)C [E-18-H] (H-EKDDTGTPITKIELVPSH-OH) | 104 ± 5.01
19 | CC[C@H](C)[C@H](NC(=O)[C@H](CCCCN)NC(=O)[C@H](CCCCN)NC(=O)[C@H](CC(C)C)NC(=O)[C@@H](N)Cc1ccccc1)C(=O)N[C@@H](CO)C(=O)N[C@@H](CCC(N)=O)C(=O)N[C@@H](CCCNC(=N)N)C(=O)N[C@@H](Cc1ccc(O)cc1)C(=O)N[C@@H](CCC(N)=O)C(=O)N[C@@H](CCCCN)C(=O)N[C@@H](Cc1ccccc1)C(=O)O [F-12-F] (H-FLKKISQRYQKF-OH) | 97.7 ± 19.2
